Data set [1] can be described thus: Solubility in simulated intestinal fluids (FaSSIF/FeSSIF). The settings on record: 25 °C, thermodynamic from solid.
For data set [2] the following is noted: 1.0% DMSO, 24-hour incubation at ambient temperature, maximum theoretical 100 μM; for pH 2 solubility: 0.1N HCl, first value of the cell; for pH 7 solubility: 1×PBS buffer (pH 7.4), second value of the cell.
[3] abbreviates: fasted state simulated intestinal fluid (FaSSIF), fassif.
[4] abbreviates: fed state simulated intestinal fluid (FeSSIF), fessif.

The source of these data is patent US12404262B2 (priority 2021, dated 2025).

≈ marks a conversion by molar mass, not a printed value.

`CC(C)(C#Cc1ccc(-c2ccc(Cl)c3c(N(C(=O)OCCCP(=O)(O)O)S(C)(=O)=O)nn(CC(F)(F)F)c23)c([C@H](Cc2cc(F)cc(F)c2)NC(=O)Cn2nc(C(F)(F)F)c3c2C(F)(F)[C@@H]2C[C@H]32)n1)S(C)(=O)=O` [Compound 112, (3-(((4-chloro-7-(2-((S)-1-(2-((3bS,4aR)-5,5-difluoro-3-(trifluoromethyl)-3b,4,4a,5-tetrahydro-1H-cyclopropa[3,4]cyclopenta[1,2-c]pyrazol-1-yl)acetamido)-2-(3,5-difluorophenyl)ethyl)-6-(3-methyl-3-(methylsulfonyl)but-1-yn-1-yl)pyridin-3-yl)-1-(2,2,2-trifluoroethyl)-1H-indazol-3-yl)(methylsulfonyl)carbamoyl)oxy)propyl)phosphonic acid] came in with a solubility in data set [1] (setting [3]) of 778 µg/mL (≈ 686 µM). This compound returned a solubility in data set [1] (setting [4]) of 1250 µg/mL (≈ 1100 µM). Further, in data set [2], the “pH 2 solubility” value is on record as 1 μM and the “pH 7 solubility” value was found to be 77 μM.
For the compound `CN(C(=O)N(c1nn(CC(F)(F)F)c2c(-c3ccc(C#CC(C)(C)S(C)(=O)=O)nc3[C@H](Cc3cc(F)cc(F)c3)NC(=O)Cn3nc(C(F)(F)F)c4c3C(F)(F)[C@@H]3C[C@H]43)ccc(Cl)c12)S(C)(=O)=O)[C@@H](CC(=O)O)C(=O)OCOP(=O)(O)O` [Compound 88, (S)-3-(3-(4-chloro-7-(2-((S)-1-(2-((3bS,4aR)-5,5-difluoro-3-(trifluoromethyl)-3b,4,4a,5-tetrahydro-1H-cyclopropa[3,4]cyclopenta[1,2-c]pyrazol-1-yl)acetamido)-2-(3,5-difluorophenyl)ethyl)-6-(3-methyl-3-(methylsulfonyl)but-1-yn-1-yl)pyridin-3-yl)-1-(2,2,2-trifluoroethyl)-1H-indazol-3-yl)-1-methyl-3-(methylsulfonyl)ureido)-4-oxo-4-((phosphonooxy)methoxy)butanoic acid], the solubility in data set [1] (setting [3]) is 841 µg/mL (≈ 672 µM). In data set [1] (setting [4]), the solubility is 589 µg/mL (≈ 471 µM). For the same compound, in data set [2], the “pH 2 solubility” value is reported as 1 μM and the “pH 7 solubility” value is recorded as 15 μM.
As for `CC(C)(C#Cc1ccc(-c2ccc(Cl)c3c(N(COC(=O)CN)S(C)(=O)=O)nn(CC(F)(F)F)c23)c([C@H](Cc2cc(F)cc(F)c2)NC(=O)Cn2nc(C(F)(F)F)c3c2C(F)(F)[C@@H]2C[C@H]32)n1)S(C)(=O)=O` [Compound 29, (N-(4-chloro-7-(2-((S)-1-(2-((3bS,4aR)-5,5-difluoro-3-(trifluoromethyl)-3b,4,4a,5-tetrahydro-1H-cyclopropa[3,4]cyclopenta[1,2-c]pyrazol-1-yl)acetamido)-2-(3,5-difluorophenyl)ethyl)-6-(3-methyl-3-(methylsulfonyl)but-1-yn-1-yl)pyridin-3-yl)-1-(2,2,2-trifluoroethyl)-1H-indazol-3-yl)methylsulfonamido)methyl glycinate], the solubility in data set [1] (setting [3]) was 6 µg/mL (≈ 5.69 µM). The concentration in solution in data set [1] (setting [4]) (solubility) was 120 µg/mL (≈ 114 µM). In addition, in data set [2], the “pH 2 solubility” value is reported as 54 μM and the “pH 7 solubility” value stood at 4 μM.
In the same order, the values of `CC(C)(C#Cc1ccc(-c2ccc(Cl)c3c(N(C(=O)OCOP(=O)(O)O)S(C)(=O)=O)nn(CC(F)(F)F)c23)c([C@H](Cc2cc(F)cc(F)c2)NC(=O)Cn2nc(C(F)(F)F)c3c2C(F)(F)[C@@H]2C[C@H]32)n1)S(C)(=O)=O` [Compound 90, (phosphonooxy)methyl (4-chloro-7-(2-((S)-1-(2-((3bS,4aR)-5,5-difluoro-3-(trifluoromethyl)-3b,4,4a,5-tetrahydro-1H-cyclopropa[3,4]cyclopenta[1,2-c]pyrazol-1-yl)acetamido)-2-(3,5-difluorophenyl)ethyl)-6-(3-methyl-3-(methylsulfonyl)but-1-yn-1-yl)pyridin-3-yl)-1-(2,2,2-trifluoroethyl)-1H-indazol-3-yl)(methylsulfonyl)carbamate] are 2 µg/mL (≈ 1.78 µM), 3 µg/mL (≈ 2.67 µM), 1 μM and 48 μM.
In data set [1] (setting [3]), `CC(C)(C#Cc1ccc(-c2ccc(Cl)c3c(N(C(=O)N[C@@H](CCC(=O)O)C(=O)O)S(C)(=O)=O)nn(CC(F)(F)F)c23)c([C@H](Cc2cc(F)cc(F)c2)NC(=O)Cn2nc(C(F)(F)F)c3c2C(F)(F)[C@@H]2C[C@H]32)n1)S(C)(=O)=O` [Compound 68, ((4-chloro-7-(2-((S)-1-(2-((3bS,4aR)-5,5-difluoro-3-(trifluoromethyl)-3b,4,4a,5-tetrahydro-1H-cyclopropa[3,4]cyclopenta[1,2-c]pyrazol-1-yl)acetamido)-2-(3,5-difluorophenyl)ethyl)-6-(3-methyl-3-(methylsulfonyl)but-1-yn-1-yl)pyridin-3-yl)-1-(2,2,2-trifluoroethyl)-1H-indazol-3-yl)(methylsulfonyl)carbamoyl)-L-glutamic acid] showed a solubility of 700 µg/mL (≈ 613 µM). In addition, the solubility in data set [1] (setting [4]) is 246 µg/mL (≈ 216 µM). Besides, in data set [2], the “pH 2 solubility” value worked out at 1 μM and the “pH 7 solubility” value is reported as 18 μM.
As for `CN(CCC(=O)O)C(=O)N(c1nn(CC(F)(F)F)c2c(-c3ccc(C#CC(C)(C)S(C)(=O)=O)nc3[C@H](Cc3cc(F)cc(F)c3)NC(=O)Cn3nc(C(F)(F)F)c4c3C(F)(F)[C@@H]3C[C@H]43)ccc(Cl)c12)S(C)(=O)=O` [Compound 45, 3-(3-(4-chloro-7-(2-((S)-1-(2-((3bS,4aR)-5,5-difluoro-3-(trifluoromethyl)-3b,4,4a,5-tetrahydro-1H-cyclopropa[3,4]cyclopenta[1,2-c]pyrazol-1-yl)acetamido)-2-(3,5-difluorophenyl)ethyl)-6-(3-methyl-3-(methylsulfonyl)but-1-yn-1-yl)pyridin-3-yl)-1-(2,2,2-trifluoroethyl)-1H-indazol-3-yl)-1-methyl-3-(methylsulfonyl)ureido)propanoic acid], the solubility in data set [1] (setting [3]) was 14 µg/mL (≈ 12.8 µM); in data set [1] (setting [4]) it was 1 µg/mL (≈ 0.911 µM). In addition, the “pH 2 solubility” value in data set [2] was determined as 1 μM. Also, the “pH 7 solubility” value in data set [2] worked out at 20 μM.
For `CC(C)(C#Cc1ccc(-c2ccc(Cl)c3c(N(C(=O)OC(CC(=O)O)CC(=O)O)S(C)(=O)=O)nn(CC(F)(F)F)c23)c([C@H](Cc2cc(F)cc(F)c2)NC(=O)Cn2nc(C(F)(F)F)c3c2C(F)(F)[C@@H]2C[C@H]32)n1)S(C)(=O)=O` [Compound 125, 3-(((4-chloro-7-(2-((S)-1-(2-((3bS,4aR)-5,5-difluoro-3-(trifluoromethyl)-3b,4,4a,5-tetrahydro-1H-cyclopropa[3,4]cyclopenta[1,2-c]pyrazol-1-yl)acetamido)-2-(3,5-difluorophenyl)ethyl)-6-(3-methyl-3-(methylsulfonyl)but-1-yn-1-yl)pyridin-3-yl)-1-(2,2,2-trifluoroethyl)-1H-indazol-3-yl)(methylsulfonyl)carbamoyl)oxy)pentanedioic acid], in data set [1] (setting [3]), the solubility is 617 µg/mL (≈ 540 µM). Also, the solubility in data set [1] (setting [4]) is 42 µg/mL (≈ 36.8 µM). In data set [2], the “pH 2 solubility” value stood at 14 μM and the “pH 7 solubility” value is 68 μM.
For `CC(C)(C#Cc1ccc(-c2ccc(Cl)c3c(N(C(=O)NCCNC(=N)N)S(C)(=O)=O)nn(CC(F)(F)F)c23)c([C@H](Cc2cc(F)cc(F)c2)NC(=O)Cn2nc(C(F)(F)F)c3c2C(F)(F)[C@@H]2C[C@H]32)n1)S(C)(=O)=O` [Compound 76], the solubility is 7 µg/mL (≈ 6.38 µM) in data set [1] (setting [3]) and 68 µg/mL (≈ 62 µM) in data set [1] (setting [4]).
As for `CC(C)(C#Cc1ccc(-c2ccc(Cl)c3c(N(C(=O)O[C@H]4C[C@H](NC(=N)N)C4)S(C)(=O)=O)nn(CC(F)(F)F)c23)c([C@H](Cc2cc(F)cc(F)c2)NC(=O)Cn2nc(C(F)(F)F)c3c2C(F)(F)[C@@H]2C[C@H]32)n1)S(C)(=O)=O` [Compound 128, trans-3-guanidinocyclobutyl (4-chloro-7-(2-((S)-1-(2-((3bS,4aR)-5,5-difluoro-3-(trifluoromethyl)-3b,4,4a,5-tetrahydro-1H-cyclopropa[3,4]cyclopenta[1,2-c]pyrazol-1-yl)acetamido)-2-(3,5-difluorophenyl)ethyl)-6-(3-methyl-3-(methylsulfonyl)but-1-yn-1-yl)pyridin-3-yl)-1-(2,2,2-trifluoroethyl)-1H-indazol-3-yl)(methylsulfonyl)carbamate], in data set [2], the “pH 2 solubility” value is 5 μM and the “pH 7 solubility” value is 1 μM.
For `CC(C)(C#Cc1ccc(-c2ccc(Cl)c3c(N(C(=O)OCCCOP(=O)(O)O)S(C)(=O)=O)nn(CC(F)(F)F)c23)c([C@H](Cc2cc(F)cc(F)c2)NC(=O)Cn2nc(C(F)(F)F)c3c2C(F)(F)[C@@H]2C[C@H]32)n1)S(C)(=O)=O` [Compound 98, 3-(phosphonooxy)propyl (4-chloro-7-(2-((S)-1-(2-((3bS,4aR)-5,5-difluoro-3-(trifluoromethyl)-3b,4,4a,5-tetrahydro-1H-cyclopropa[3,4]cyclopenta[1,2-c]pyrazol-1-yl)acetamido)-2-(3,5-difluorophenyl)ethyl)-6-(3-methyl-3-(methylsulfonyl)but-1-yn-1-yl)pyridin-3-yl)-1-(2,2,2-trifluoroethyl)-1H-indazol-3-yl)(methylsulfonyl)carbamate], in data set [2], the “pH 2 solubility” value is given as 1 μM and the “pH 7 solubility” value turned out to be 100 μM.
In the same order, the values of `CN(CC(C)(C)O)C(=O)N(c1nn(CC(F)(F)F)c2c(-c3ccc(C#CC(C)(C)S(C)(=O)=O)nc3[C@H](Cc3cc(F)cc(F)c3)NC(=O)Cn3nc(C(F)(F)F)c4c3C(F)(F)[C@@H]3C[C@H]43)ccc(Cl)c12)S(C)(=O)=O` [Compound 47, N—((S)-1-(3-(4-chloro-3-(N-((2-hydroxy-2-methylpropyl)(methyl)carbamoyl)methylsulfonamido)-1-(2,2,2-trifluoroethyl)-1H-indazol-7-yl)-6-(3-methyl-3-(methylsulfonyl)but-1-yn-1-yl)pyridin-2-yl)-2-(3,5-difluorophenyl)ethyl)-2-((3bS,4aR)-5,5-difluoro-3-(trifluoromethyl)-3b,4,4a,5-tetrahydro-1H-cyclopropa[3,4]cyclopenta[1,2-c]pyrazol-1-yl)acetamide] are 1/1 μM and 1/1 μM.
